From ChEMBL document CHEMBL3885861, “Open TG-GATES”

Organism: Rattus norvegicus
Assay: Open TG-GATES - Regimen: Single
Assay type: toxicity, organism-based, Sprague-Dawley
Set-up: regimen Single, gender Male, age 6 weeks
Conditions: in vivo, sc, route subcutaneous injection; for APTT / Bas / Eos / Fbg / Hb / Ht / Lym / MCH / MCHC / MCV / Mono / Neu / PT / Plat / RBC / Ret / WBC: tissue Blood; for KIDNEY_L / KIDNEY_R / KIDNEY_TOTAL: tissue Kidney; for LIVER: tissue Liver; for A/G / ALP / ALT / AST / BUN / CRE / Ca / Cl / DBIL / GLC / IP / K / LDH / Na / PL / RALB / TBIL / TC / TG / TP / gamma-GTP: tissue Plasma
[1] = 0.2 mg/kg, 3 h, dose 200 ug/Kg, dose level Middle
[2] = 0.2 mg/kg, 6 h, dose 200 ug/Kg, dose level Middle
[3] = 0.2 mg/kg, 9 h, dose 200 ug/Kg, dose level Middle
[4] = 0.2 mg/kg, 24 h, dose 200 ug/Kg, dose level Middle
[5] = 2 mg/kg, 3 h, dose 2000 ug/Kg, dose level High
[6] = 2 mg/kg, 6 h, dose 2000 ug/Kg, dose level High
[7] = 2 mg/kg, 9 h, dose 2000 ug/Kg, dose level High
[8] = 2 mg/kg, 24 h, dose 2000 ug/Kg, dose level High

## CC(=O)O.N=C(N)NCCC[C@@H](NC(=O)[C@@H]1CCCN1C(=O)[C@@H]1CSSCCC(=O)N[C@@H](Cc2ccc(O)cc2)C(=O)N[C@@H](Cc2ccccc2)C(=O)N[C@@H](CCC(N)=O)C(=O)N[C@@H](CC(N)=O)C(=O)N1)C(=O)NCC(N)=O [DESMOPRESSIN ACETATE]
[1]
  TERMINAL_BW: 206.2 g
  APTT: 17.6 s
  Bas: 0%
  Eos: 1%
  Fbg: 256.3 mg/dL
  Hb: 12.8 g/dL
  Ht: 39.6%
  Lym: 71.8%
  MCH: 21.1 pg
  MCHC: 32.3%
  MCV: 65.1 fL
  Mono: 7.6%
  Neu: 19.6%
  PT: 12.2 s
  Plat: 112.4 x10_4/uL
  RBC: 609.4 x10_4/ul
  Ret: 8.8%
  WBC: 77 x10_2/uL
  KIDNEY_L: 0.9 g
  KIDNEY_R: 1 g
  KIDNEY_TOTAL: 1.9 g
  LIVER: 9.9 g
  A/G: 2
  ALP: 1405.8 IU/L
  ALT: 44.4 IU/L
  AST: 81.2 IU/L
  BUN: 23.8 mg/dL
  CRE: 0.4 mg/dL
  Ca: 11.8 mg/dL
  Cl: 101 meq/L
  DBIL: 0.012 mg/dL
  GLC: 205.6 mg/dL
  IP: 10.8 mg/dL
  K: 4.6 meq/L
  LDH: 272.6 IU/L
  Na: 134.6 meq/L
  PL: 145.8 mg/dL
  RALB: 3.8 g/dL
  TBIL: 0.05 mg/dL
  TC: 77 mg/dL
  TG: 99.8 mg/dL
  TP: 5.7 g/dL
  gamma-GTP: 0.8 IU/L
[2]
  TERMINAL_BW: 205.6 g
  APTT: 18.4 s
  Bas: 0%
  Eos: 1.6%
  Fbg: 244.6 mg/dL
  Hb: 13 g/dL
  Ht: 39.7%
  Lym: 71.8%
  MCH: 21.4 pg
  MCHC: 32.8%
  MCV: 65.3 fL
  Mono: 8.8%
  Neu: 18%
  PT: 12.5 s
  Plat: 124.8 x10_4/uL
  RBC: 609.4 x10_4/ul
  Ret: 8.7%
  WBC: 102.8 x10_2/uL
  KIDNEY_L: 1 g
  KIDNEY_R: 1 g
  KIDNEY_TOTAL: 2 g
  LIVER: 9.6 g
  A/G: 2.1
  ALP: 1316 IU/L
  ALT: 34.8 IU/L
  AST: 63.2 IU/L
  BUN: 27.4 mg/dL
  CRE: 0.3 mg/dL
  Ca: 10.9 mg/dL
  Cl: 101 meq/L
  DBIL: 0.016 mg/dL
  GLC: 200.6 mg/dL
  IP: 10.3 mg/dL
  K: 4.6 meq/L
  LDH: 127.6 IU/L
  Na: 135.4 meq/L
  PL: 155.6 mg/dL
  RALB: 3.7 g/dL
  TBIL: 0.064 mg/dL
  TC: 84.2 mg/dL
  TG: 76.2 mg/dL
  TP: 5.5 g/dL
  gamma-GTP: 1 IU/L
[3]
  TERMINAL_BW: 199.6 g
  APTT: 17.9 s
  Bas: 0%
  Eos: 1.2%
  Fbg: 239.4 mg/dL
  Hb: 13.3 g/dL
  Ht: 41%
  Lym: 74.4%
  MCH: 21.4 pg
  MCHC: 32.4%
  MCV: 66.2 fL
  Mono: 7.4%
  Neu: 17%
  PT: 12.5 s
  Plat: 112.4 x10_4/uL
  RBC: 620 x10_4/ul
  Ret: 9.2%
  WBC: 93.8 x10_2/uL
  KIDNEY_L: 1 g
  KIDNEY_R: 1 g
  KIDNEY_TOTAL: 2.1 g
  LIVER: 8.4 g
  A/G: 2
  ALP: 1325.8 IU/L
  ALT: 31 IU/L
  AST: 60.4 IU/L
  BUN: 28.4 mg/dL
  CRE: 0.3 mg/dL
  Ca: 11.2 mg/dL
  Cl: 102.6 meq/L
  DBIL: 0.016 mg/dL
  GLC: 195.6 mg/dL
  IP: 10.6 mg/dL
  K: 5.4 meq/L
  LDH: 104.4 IU/L
  Na: 135.4 meq/L
  PL: 144 mg/dL
  RALB: 3.7 g/dL
  TBIL: 0.068 mg/dL
  TC: 84 mg/dL
  TG: 50.2 mg/dL
  TP: 5.5 g/dL
  gamma-GTP: 0.8 IU/L
[4]
  TERMINAL_BW: 218.4 g
  APTT: 16.7 s
  Bas: 0%
  Eos: 1%
  Fbg: 245.4 mg/dL
  Hb: 12.6 g/dL
  Ht: 38.9%
  Lym: 77.4%
  MCH: 21.1 pg
  MCHC: 32.4%
  MCV: 65.3 fL
  Mono: 6.4%
  Neu: 15%
  PT: 12.3 s
  Plat: 123 x10_4/uL
  RBC: 596.6 x10_4/ul
  Ret: 10.6%
  WBC: 103.4 x10_2/uL
  KIDNEY_L: 1 g
  KIDNEY_R: 1 g
  KIDNEY_TOTAL: 2 g
  LIVER: 10.2 g
  A/G: 2
  ALP: 1597.6 IU/L
  ALT: 40.2 IU/L
  AST: 69.8 IU/L
  BUN: 19.8 mg/dL
  CRE: 0.4 mg/dL
  Ca: 11.1 mg/dL
  Cl: 103.6 meq/L
  DBIL: 0 mg/dL
  GLC: 197.4 mg/dL
  IP: 8.5 mg/dL
  K: 5.3 meq/L
  LDH: 156.4 IU/L
  Na: 137.2 meq/L
  PL: 157 mg/dL
  RALB: 3.6 g/dL
  TBIL: 0.022 mg/dL
  TC: 90.6 mg/dL
  TG: 93 mg/dL
  TP: 5.5 g/dL
  gamma-GTP: 1.8 IU/L
[5]
  TERMINAL_BW: 202.2 g
  APTT: 18 s
  Bas: 0%
  Eos: 1.6%
  Fbg: 237.8 mg/dL
  Hb: 12.9 g/dL
  Ht: 39.6%
  Lym: 64.8%
  MCH: 21.3 pg
  MCHC: 32.6%
  MCV: 65.5 fL
  Mono: 10.6%
  Neu: 22.8%
  PT: 12.3 s
  Plat: 117.4 x10_4/uL
  RBC: 606.2 x10_4/ul
  Ret: 9.2%
  WBC: 85.4 x10_2/uL
  KIDNEY_L: 0.9 g
  KIDNEY_R: 1 g
  KIDNEY_TOTAL: 1.9 g
  LIVER: 9.5 g
  A/G: 2
  ALP: 1436 IU/L
  ALT: 38.6 IU/L
  AST: 70.8 IU/L
  BUN: 22.6 mg/dL
  CRE: 0.4 mg/dL
  Ca: 11.7 mg/dL
  Cl: 97 meq/L
  DBIL: 0.01 mg/dL
  GLC: 217 mg/dL
  IP: 9.5 mg/dL
  K: 4.6 meq/L
  LDH: 134.8 IU/L
  Na: 130.6 meq/L
  PL: 157.4 mg/dL
  RALB: 4 g/dL
  TBIL: 0.048 mg/dL
  TC: 82.4 mg/dL
  TG: 89 mg/dL
  TP: 5.9 g/dL
  gamma-GTP: 0.8 IU/L
[6]
  TERMINAL_BW: 204.1 g
  APTT: 18.4 s
  Bas: 0%
  Eos: 1.2%
  Fbg: 247.9 mg/dL
  Hb: 13.2 g/dL
  Ht: 40%
  Lym: 65.8%
  MCH: 21.8 pg
  MCHC: 33%
  MCV: 66 fL
  Mono: 11.8%
  Neu: 21%
  PT: 12.1 s
  Plat: 120.4 x10_4/uL
  RBC: 606.4 x10_4/ul
  Ret: 10.1%
  WBC: 106 x10_2/uL
  KIDNEY_L: 1 g
  KIDNEY_R: 1 g
  KIDNEY_TOTAL: 2 g
  LIVER: 9.3 g
  A/G: 1.9
  ALP: 1390.6 IU/L
  ALT: 36 IU/L
  AST: 64 IU/L
  BUN: 31.6 mg/dL
  CRE: 0.4 mg/dL
  Ca: 11.1 mg/dL
  Cl: 96.2 meq/L
  DBIL: 0.016 mg/dL
  GLC: 211.2 mg/dL
  IP: 10.6 mg/dL
  K: 4.5 meq/L
  LDH: 122.2 IU/L
  Na: 131 meq/L
  PL: 157.4 mg/dL
  RALB: 3.9 g/dL
  TBIL: 0.084 mg/dL
  TC: 92.4 mg/dL
  TG: 49.4 mg/dL
  TP: 5.9 g/dL
  gamma-GTP: 1 IU/L
[7]
  TERMINAL_BW: 202.3 g
  APTT: 17.8 s
  Bas: 0%
  Eos: 1%
  Fbg: 249 mg/dL
  Hb: 12.8 g/dL
  Ht: 39.2%
  Lym: 74.4%
  MCH: 20.9 pg
  MCHC: 32.7%
  MCV: 63.9 fL
  Mono: 7.4%
  Neu: 17%
  PT: 12.5 s
  Plat: 124.6 x10_4/uL
  RBC: 613.2 x10_4/ul
  Ret: 8.9%
  WBC: 98.6 x10_2/uL
  KIDNEY_L: 1 g
  KIDNEY_R: 1 g
  KIDNEY_TOTAL: 2 g
  LIVER: 8.6 g
  A/G: 2.2
  ALP: 1194.8 IU/L
  ALT: 29.6 IU/L
  AST: 64.2 IU/L
  BUN: 31.8 mg/dL
  CRE: 0.3 mg/dL
  Ca: 11.1 mg/dL
  Cl: 98.6 meq/L
  DBIL: 0.018 mg/dL
  GLC: 197.4 mg/dL
  IP: 10.7 mg/dL
  K: 4.9 meq/L
  LDH: 129.4 IU/L
  Na: 132.8 meq/L
  PL: 137.6 mg/dL
  RALB: 3.8 g/dL
  TBIL: 0.08 mg/dL
  TC: 77.8 mg/dL
  TG: 40.6 mg/dL
  TP: 5.6 g/dL
  gamma-GTP: 0.4 IU/L
[8]
  TERMINAL_BW: 220.4 g
  APTT: 16.2 s
  Bas: 0%
  Eos: 1%
  Fbg: 236.7 mg/dL
  Hb: 12.6 g/dL
  Ht: 38.7%
  Lym: 66.8%
  MCH: 21.1 pg
  MCHC: 32.7%
  MCV: 64.6 fL
  Mono: 10.6%
  Neu: 21.2%
  PT: 12.4 s
  Plat: 121 x10_4/uL
  RBC: 599 x10_4/ul
  Ret: 9.6%
  WBC: 88.8 x10_2/uL
  KIDNEY_L: 1 g
  KIDNEY_R: 1 g
  KIDNEY_TOTAL: 2.1 g
  LIVER: 10.4 g
  A/G: 1.9
  ALP: 1283.2 IU/L
  ALT: 33.4 IU/L
  AST: 60 IU/L
  BUN: 20 mg/dL
  CRE: 0.3 mg/dL
  Ca: 11.1 mg/dL
  Cl: 103.6 meq/L
  DBIL: 0 mg/dL
  GLC: 195.2 mg/dL
  IP: 8.4 mg/dL
  K: 5.4 meq/L
  LDH: 128.4 IU/L
  Na: 136.4 meq/L
  PL: 150 mg/dL
  RALB: 3.5 g/dL
  TBIL: 0.014 mg/dL
  TC: 81.4 mg/dL
  TG: 110 mg/dL
  TP: 5.3 g/dL
  gamma-GTP: 1.4 IU/L
